Source: patent US20230065953A1, “NOVEL HETEROARYL-TRIAZOLE COMPOUNDS AS PESTICIDES” (Bayer Aktiengesellschaft, priority 2019, published 2023)

Legend:
Assay type in all cases: in vivo
[1] = test system: larvae of the banded cucumber beetle (Diabrotica balteata); test: Diabrotica balteata spray test; details: 168 h, 100 g/ha (=32 μg/well), wheat seeds, after 7 days, read-out: efficacy (seedling growth)
Protocol: Diabrotica Balteata—Spray Test
• Solvent: 78.0 parts by weight of acetone • 1.5 parts by weight of dimethylformamide • Emulsifier: alkylarylpolyglycol ether
Further test concentrations are prepared by dilution with emulsifier containing water.
Soaked wheat seeds (Triticum aestivum) are placed in a multiple well plate filled with agar and some water and are incubated for 1 day to germinate (5 seeds per well). The germinated wheat seeds are sprayed with a test solution containing the desired concentration of the active ingredient. Afterwards each unit is infected with 10-20 larvae of the banded cucumber beetle (Diabrotica balteata).
After 7 days efficacy in % is determined.

[2] = test system: fall armyworm larvae (Spodoptera frugiperda); test: Spodoptera frugiperda spray test (maize leaf sections); details: 168 h
Protocol: Spodoptera frugiperda—Spray Test • Solvent: 78.0 parts by weight acetone • 1.5 parts by weight dimethylformamide • Emulsifier: alkylarylpolyglycol ether
(§1) To produce a suitable preparation of active compound, 1 part by weight of active compound is mixed with the stated amount of solvents and is diluted with water, containing an emulsifier concentration of 1000 ppm, to the desired concentration. Further test concentrations are prepared by dilution with emulsifier containing water.
Maize (Zea mays) leaf sections are sprayed with a preparation of the active ingredient of the desired concentration. Once dry, the leaf sections are infested with fall armyworm larvae (Spodoptera frugiperda).
After 7 days mortality in % is determined. 100% means all caterpillars have been killed and 0% means none of the caterpillars have been killed.

[3] = test system: larvae of the southern green stink bug (Nezara viridula); test: Nezara viridula spray test; details: in Hordeum vulgare, 96 h
Protocol: Nezara viridula—Spray Test • Solvent: 78.0 parts by weight of acetone • 1.5 parts by weight of dimethylformamide • Emulsifier: alkylarylpolyglycol ether
as §1, with “solvent,” for “solvents”, “and the concentrate” for “and”
Barley plants (Hordeum vulgare) are sprayed with a test solution containing the desired concentration of the active ingredient and are infested with larvae of the southern green stink bug (Nezara viridula).
After 4 days mortality in % is determined. 100% means all the stink bugs have been killed; 0% means none of the stink bugs have been killed.

[4] = test system: green peach aphid (Myzus persicae); test: Myzus persicae spray test; details: foliar, 120 h, Chinese cabbage leaf disks, after 5 days
Protocol: Myzus persicae—Spray Test • Solvent: 78.0 parts by weight acetone • 1.5 parts by weight dimethylformamide • Emulsifier: alkylarylpolyglycol ether
as §1
Chinese cabbage (Brassica pekinensis) leaf disks infected with all instars of the green peach aphid (Myzus persicae), are sprayed with a preparation of the active ingredient of the desired concentration.
After 5 days mortality in % is determined. 100% means all aphids have been killed and 0% means none of the aphids have been killed.

[5] = test system: Rhipicephalus microplus larvae (strain Parkhurst, resistant against synthetic pyrethroids); test: Rhipicephalus (Boophilus) microplus in-vitro contact test, larval cattle tick; details: 5 μg/cm^2 (=500 g/ha), after 48 hours, read-out: efficacy (larvae dead or moribund)
Protocol: Rhipicephalus (Boophilus) Microplus—In-Vitro Contact Tests Larval Cattle Tick (Strain Parkhurst, Resistant Against Synthetic Pyrethroids)
9 mg compound is solved in 1 mL acetone and diluted with acetone to the desired concentration. 250 μL of the test solution is filled in 25 mL glass test tubes and homogeneously distributed on the inner walls by rotation and tilting on a shaking device (2 h at 30 rpm). With a compound concentration of 900 ppm, an inner surface of 44.7 cm^2 and a homogeneous distribution, a dose of 5 μg/cm^2 is achieved.
After the solvent has evaporated, each test tube is filled with 20-50 cattle tick larvae (Rhipicephalus microplus), closed with a perforated lid and incubated in a horizontal position at 85% relative humidity and 27° C. in an incubator. After 48 hours efficacy is determined. The larvae are patted on the ground of the tubes and negative geotactic behavior is recorded.
An efficacy of 100% means all larvae are dead or moribund; 0% means no larvae are dead or moribund.

Row | Structure (SMILES) | pest or weed control at 32 µg/disc, 100 g/ha [1] [%] | mortality at 100 g/ha [2] [%] | mortality at 500 g/ha [3] [%] | mortality at 100 g/ha [4] [%] | mortality at 100 g/ha [3] [%] | pest or weed control at 5 µg/cm2 [5] [%]
1 | C[C@H](NC(=O)c1cc(Cl)cc(S(=O)(=O)C2CC2)c1)c1ncnn1-c1ncc(C#N)s1 [I-46] | 100 | 100 | 100 | 90 |  | 
2 | C[C@H](NC(=O)c1cc(OC(F)F)cc(S(=O)(=O)C2CC2)c1)c1ncnn1-c1ncc(C#N)s1 [I-50] |  | 100 | 100 | 90 | 90 | 
3 | C[C@H](NC(=O)c1cc(C(F)F)cc(S(=O)(=O)C2CC2)c1)c1ncnn1-c1ncc(C#N)s1 [I-51] |  | 100 | 100 | 90 | 100 | 
4 | C[C@H](NC(=O)c1cc(OC(F)F)cc(S(C)(=O)=O)c1)c1ncnn1-c1ncc(C#N)s1 [I-54, N-{(1S)-1-[1-(5-cyano-1,3-thiazol-2-yl)-1H-1,2,4-triazol-5-yl]ethyl}-3-(difluoromethoxy)-5-(methylsulfonyl)benzamide] |  | 100 | 100 |  |  | 
5 | Cc1nc([C@H](C)NC(=O)c2cc(Cl)nc(C(F)(F)F)c2)n(-c2ncc(C(=O)N(C)C)s2)n1 [I-77] | 100 | 100 |  |  |  | 100
6 | Cc1nc([C@H](C)NC(=O)c2cc(Cl)nc(C(F)(F)F)c2)n(-c2ncc(C(=O)N(C)CC#N)s2)n1 [I-80] | 100 | 100 |  |  |  | 100
7 | C[C@H](NC(=O)c1cc(Cl)cc(C(F)(F)Br)c1)c1ncnn1-c1ncc(C#N)s1 [I-86] | 100 | 100 |  | 100 |  | 
8 | C[C@H](NC(=O)c1cc(C2CC2)cc(C(C)(F)F)c1)c1ncnn1-c1ncc(C#N)s1 [I-95] | 100 | 100 |  | 100 |  | 
9 | C[C@H](NC(=O)c1cc(OC(F)(F)F)cc(S(=O)(=O)C2CC2)c1)c1nc(C2CC2)nn1-c1ncc(C#N)s1 [I-104] | 100 | 100 | 90 |  |  | 
10 | CNC(=O)c1cnc(-n2ncnc2[C@H](C)NC(=O)c2cc(Br)cc(OC(F)(F)F)c2)s1 [I-111] | 100 | 100 | 100 |  |  | 
11 | C[C@H](NC(=O)c1cc(Br)cc(OC(F)F)c1)c1ncnn1-c1ncc(C(=O)N(C)C)s1 [I-115] | 100 | 100 | 90 |  |  | 
12 | C[C@H](NC(=O)c1cc(C(F)F)cc(C(F)F)c1)c1ncnn1-c1ncc(C(=O)N(C)C)s1 [I-117] |  |  | 100 |  | 100 | 
13 | C[C@H](NC(=O)c1cc(Cl)cc(S(=O)(=O)C(F)F)c1)c1ncnn1-c1ncc(C(=O)N(C)C)s1 [I-121] | 100 |  | 100 |  |  | 
14 | C[C@H](NC(=O)c1cc(C(F)F)cc(S(=O)(=O)C2CC2)c1)c1nc(C2CC2)nn1-c1ncc(C#N)s1 [I-123] | 100 | 100 | 100 |  |  | 
15 | C[C@H](NC(=O)c1cc(Cl)cc(S(=O)(=O)C(F)F)c1)c1ncnn1-c1ncc(C#N)s1 [I-134] | 100 | 100 | 100 |  |  | 
16 | C[C@H](NC(=O)c1cc(OC(F)F)cc(S(=O)(=O)C(F)F)c1)c1ncnn1-c1ncc(C#N)s1 [I-136] | 100 | 100 | 100 |  | 100 | 
17 | C[C@H](NC(=O)c1cc(OC(F)F)cc(OC(F)F)c1)c1ncnn1-c1ncc(C(=O)N(C)C2CC2)s1 [I-148] | 100 | 100 |  | 90 |  | 
18 | C[C@H](NC(=O)c1cc(OC(F)(F)F)cc(C2CC2)c1)c1ncnn1-c1ncc(C(=O)N(C)C2CC2)s1 [I-152] | 100 | 100 |  | 90 |  | 

Row | Structure (SMILES) | pest or weed control at 32 µg/disc, 100 g/ha [1] [%] | mortality at 100 g/ha [2] [%] | mortality at 500 g/ha [3] [%] | mortality at 100 g/ha [4] [%] | mortality at 100 g/ha [3] [%] | pest or weed control at 5 µg/cm2 [5] [%]
19 | C[C@H](NC(=O)c1cc(Br)cc(OC(F)F)c1)c1ncnn1-c1ncc(C(=O)N(C)C2CC2)s1 [I-154] | 100 | 100 |  | 90 |  | 
20 | C[C@H](NC(=O)c1cc(Cl)cc(OC(F)(F)F)c1)c1ncnn1-c1ncc(C(=O)N(C)C2CC2)s1 [I-155] | 100 | 100 |  | 90 |  | 
21 | Cc1nc([C@H](C)NC(=O)c2cc(Cl)cc(S(=O)(=O)C(F)F)c2)n(-c2ncc(C#N)s2)n1 [I-158] | 100 | 100 | 90 |  |  | 
22 | Cc1nc([C@H](C)NC(=O)c2cc(OC(F)(F)F)cc(S(C)(=O)=O)c2)n(-c2ncc(C#N)s2)n1 [I-159] | 100 | 100 |  |  |  | 
23 | Cc1nc([C@H](C)NC(=O)c2cc(Cl)cc(S(=O)(=O)C(F)(F)F)c2)n(-c2ncc(C#N)s2)n1 [I-160] | 100 | 100 |  |  |  | 
24 | Cc1nc([C@H](C)NC(=O)c2cc(OC(F)(F)F)cc(S(=O)(=O)C(F)F)c2)n(-c2ncc(C#N)s2)n1 [I-161] | 100 | 100 |  | 100 |  | 
25 | Cc1nc([C@H](C)NC(=O)c2cc(S(=O)(=O)C(F)(F)F)cc(S(=O)(=O)C(F)(F)F)c2)n(-c2ncc(C#N)s2)n1 [I-162] | 100 | 100 |  |  |  | 
26 | Cc1nc([C@H](C)NC(=O)c2cc(Cl)cc(S(=O)(=O)C3CC3)c2)n(-c2ncc(C#N)s2)n1 [I-163] | 100 | 100 |  |  |  | 
27 | Cc1nc([C@H](C)NC(=O)c2cc(OC(F)(F)F)cc(S(=O)(=O)C3CC3)c2)n(-c2ncc(C#N)s2)n1 [I-164] | 100 | 100 |  |  |  | 
28 | C[C@H](NC(=O)c1cc(C(F)(F)F)cc(Cl)n1)c1ncnn1-c1ncc(C#N)s1 [I-166] | 100 | 100 | 100 |  |  | 
29 | C[C@H](NC(=O)c1cc(Cl)cc(Cl)n1)c1ncnn1-c1ncc(C#N)s1 [I-167] | 100 |  | 100 |  |  | 
30 | C[C@H](NC(=O)c1cc(Cl)nc(C(F)(F)F)c1)c1ncnn1-c1ncc(C#N)s1 [I-168] | 100 | 100 | 100 |  |  | 
31 | C[C@H](NC(=O)c1cc(OC(F)(F)F)cc(C2(C#N)CC2)c1)c1nc(C2CC2)nn1-c1ncc(C#N)s1 [I-169] | 100 | 100 | 100 |  |  | 
32 | CNC(=O)c1cnc(-n2ncnc2[C@H](C)NC(=O)c2cc(OC(F)(F)F)cc(S(=O)(=O)C(F)F)c2)s1 [I-170] | 100 | 100 | 100 |  |  | 
33 | CNC(=O)c1cnc(-n2nc(C3CC3)nc2[C@H](C)NC(=O)c2cc(OC(F)(F)F)cc(C3CC3)c2)s1 [I-173] | 100 |  | 100 |  |  | 
34 | C[C@H](NC(=O)c1cncc(OC(F)(F)F)c1)c1ncnn1-c1ncc(C#N)s1 [I-174] |  |  | 100 |  |  | 
35 | Cc1nc([C@H](C)NC(=O)c2cncc(OC(F)(F)F)c2)n(-c2ncc(C#N)s2)n1 [I-175] |  |  | 100 |  |  | 
